# Assay results published in US6509361B1, “1,5-Diaryl substituted pyrazoles as p38 kinase inhibitors” (Pharmacia Corporation, priority 2001, dated 2003).
# System: TNF-α released by U937 cells (human histiocytic lymphoma cell line)
# Assay: U937 Cell Assay: LPS stimulation of TNF production by U937 cells, ELISA
# Type: cell-based
# Settings: U-937, differentiated U937 cells, LPS 100 ng/ml, 4 hour incubation
# Protocol: Maintenance and Differentiation of the U937 Human Histiocytic Lymphoma Cell Line:
# U937 cells (ATCC) were propagated in RPMI 1640 containing 10% fetal bovine serum, 100 IU/ml penicillin, 100 μg/ml streptomycin, and 2 mM glutamine (Gibco). Fifty million cells in 100 ml media were induced to terminal monocytic differentiation by 24 hour incubation with 20 ng/ml phorbol 12-myristate 13-acetate (Sigma). The cells were washed by centrifugation (200×g for 5 min) and resuspended in 100 ml fresh medium. After 24-48 hours, the cells were harvested, centrifuged, and resuspended in culture medium at 2 million cells/ml.
# LPS Stimulation of TNF Production by U937 Cells:
# U937 cells (0.1 ml, 2 million/ml) were incubated with 0.1 ml compound (0.004-50 μM, final concentration) for 1 hour in 96 well microtiter plates. Compounds were prepared as 10 mM stock solutions in DMSO and diluted in culture medium to yield a final DMSO concentration of 0.1% in the cell assay. LPS (E. coli, 100 ng/ml final concentration) was then added at a volume of 0.02 ml. After 4 hour incubation at 37° C., the amount of TNF-α released in the culture medium was quantitated by ELISA. Inhibitory potency is expressed as IC50 (μM).
row,IC50,Structure (SMILES)
1,≥ 10 µM,O=C(c1cnn(-c2ccc(F)cc2)c1-c1ccncc1)N1CCNCC1 [Example 17]
2,> 10 µM,"NC(=O)c1cnn(-c2ccc(F)cc2)c1-c1ccncc1 [Example 16, 1-(4-Fluorophenyl)-5-(4-pyridinyl)-1H-pyrazole-4-carboxamide]"
3,0.05 µM,"Cc1cccc(-n2nc(C)cc2-c2ccnc(NCCc3ccccc3)c2)c1 [Example 24, 2-(Phenylethylamino)-4-[1-(3-methylphenyl)-3-methyl-1H-pyrazol-5-yl]pyridine]"
4,≥ 10 µM,"Cc1cccc(-n2nc(C)cc2-c2ccnc(N(C)C)c2)c1 [Example 35, 2-(Dimethylamino)-4-[1-(3-methylphenyl)-3-methyl-1H-pyrazol-5-yl]pyridine]"
5,1.31 µM,"COc1cc(-c2cc(C)nn2-c2cccc(C)c2)ccn1 [Example 22, 2-Methoxy-4-[1-(3-methylphenyl)-3-methyl-1H-pyrazol-5-yl]pyridine]"
6,0.48 µM,Cc1cc(-c2ccnc(NCCO)c2)n(-c2ccc(Cl)cc2)n1 [Example 11]
7,17.9 µM,CNc1cc(-c2cc(C)nn2-c2ccc(C)cc2)ccn1 [Example 9]
8,0.66 µM,Cc1cccc(-n2ncc(C)c2-c2ccncc2)c1 [Example 3]
9,≥ 10 µM,"COC(=O)c1cnn(-c2ccc(F)cc2)c1-c1ccncc1 [Example 42, Methyl 1-(4-Fluorophenyl)-5-(4-pyridinyl)-1H-pyrazole-4-carboxylate]"
10,> 10 µM,"Cc1cc(-c2ccnc(Cl)c2)n(-c2cccc(F)c2)n1 [Example 46, 2-Chloro-4-[1-(3-fluorophenyl)-3-methyl-1H-pyrazol-5-yl]pyridine]"
11,1.65 µM,"Cc1cccc(-n2nc(C)cc2-c2ccnc(C#N)c2)c1 [Example 31, 2-Cyano-4-[1-(3-methylphenyl)-3 methyl-1H-pyrazol-5-yl]pyridine]"

# Target: T1, human p38 kinase alpha (Homo sapiens, UniProt Q16539)
# T1 construct: The coding region of the human p38a cDNA was obtained by PCR-amplification from RNA isolated from the human monocyte cell line THP.1; GST (N); made in house; host or cells: E. coli DH10B
# Assay: p38 Kinase Assay (in vitro; PHAS-I/32P-ATP format or EGFRP/33P-ATP format)
# Type: biochemical
# Settings: activated human p38 kinase alpha, 50 μM unlabeled ATP; table does not say which of the two assay formats
# Protocol: The coding region of the human p38a cDNA was obtained by PCR-amplification from RNA isolated from the human monocyte cell line THP.1. First strand cDNA was synthesized from total RNA as follows: 2 μg of RNA was annealed to 100 ng of random hexamer primers in a 10 μl reaction by heating to 70° C. for 10 minutes followed by 2 minutes on ice. cDNA was then synthesized by adding 1 μl of RNAsin (Promega, Madison Wis.), 2 μl of 50 mM dNTP's, 4 μl of 5×buffer, 2 μl of 100 mM DTT and 1 μl (200 U) of Superscript II™ […] reverse transcriptase. Random primer, dNTP's and Superscript™ reagents were all purchased from Life-Technologies, Gaithersburg, Mass. The reaction was incubated at 42° C. for 1 hour. Amplification of p38 cDNA was performed by aliquoting 5 μl of the reverse transcriptase reaction into a 100 μl PCR reaction containing the following: 80 μl dH2O, 2 μl 50 mM dNTP's, 1 μl each of forward and reverse primers (50 pmol/μl), 10 μl of 10× buffer and 1 μl Expand™ polymerase (Boehringer Mannheim). The PCR primers incorporated Bam HI sites onto the 5′ and 3′ end of the amplified fragment, and were purchased from Genosys. The forward and reverse primers were 5′-[…]-3′ and 5′[…]-3′, respectively. The PCR amplification was carried out in a DNA Thermal Cycler (Perkin Elmer) by repeating 30 cycles of 94° C. for 1 minute, 60° C. for 1 minute and 68° C. for 2 minutes. After amplification, excess primers and unincorporated dNTP's were removed from the amplified fragment with a Wizard™ PCR prep (Promega) and digested with Bam HI (New England Biolabs). The Bam HI digested fragment was ligated into BamHI digested pGEX 2T plasmid DNA (PharmaciaBiotech) using T-4 DNA ligase (New England Biolabs) as described by T. Maniatis, Molecular Cloning: A Laboratory Manual, 2nd ed. (1989). The ligation reaction was transformed into chemically competent E. coli DH10B cells purchased from Life-Technologies following the manufacturer's instructions. Plasmid DNA was isolated from the resulting bacterial colonies using a Promega Wizard™ miniprep kit. Plasmids containing the appropriate Bam HI fragment were sequenced in a DNA Thermal Cycler (Perkin Elmer) with Prism™ (Applied Biosystems Inc.). cDNA clones were identified that coded for both human p38a isoforms (Lee et al. Nature 372, 739). One of the clones which contained the cDNA for p38a-2 (CSBP-2) inserted in the cloning site of pGEX 2T, 3′ of the GST coding region was designated pMON 35802. The sequence obtained for this clone is an exact match of the cDNA clone reported by Lee et al. This expression plasmid allows for the production of a GST-p38a fusion protein.
# Expression of Human p38a:
# GST/p38a fusion protein was expressed from the plasmid pMON 35802 in E. coli, stain DH10B (Life Technologies, Gibco-BRL). Overnight cultures were grown in Luria Broth (LB) containing […] ampicillin. The next day, 500 ml of fresh LB was inoculated with 10 ml of overnight culture, and grown in a 2 liter flask at 37° C. with constant shaking until the culture reached an absorbance of 0.8 at 600 nm. Expression of the fusion protein was induced by addition of isopropyl b-D-thiogalactosidse (IPTG) to a final concentration of 0.05 mM. The cultures were shaken for three hours at room temperature, and the cells were harvested by centrifugation. The cell pellets were stored frozen until protein purification.
# Purification of p38 Kinase-α:
# All chemicals were from Sigma Chemical Co. unless noted. Twenty grams of E. coli cell pellet collected from five 1 L shake flask fermentations was resuspended in a volume of PBS (140 mM NaCl, 2.7 mM KCl, 10 mM Na2HPO4, 1.8 mM KH2PO4, pH 7.3) up to 200 ml. The cell suspension was adjusted to 5 mM DTT with 2 M DTT and then split equally into five 50 ml Falcon conical tubes. The cells were sonnicated (Ultrasonics model W375) with a 1 cm probe for 3×1 minutes (pulsed) on ice. […]
# T1 sequence (Q16539 whole entry): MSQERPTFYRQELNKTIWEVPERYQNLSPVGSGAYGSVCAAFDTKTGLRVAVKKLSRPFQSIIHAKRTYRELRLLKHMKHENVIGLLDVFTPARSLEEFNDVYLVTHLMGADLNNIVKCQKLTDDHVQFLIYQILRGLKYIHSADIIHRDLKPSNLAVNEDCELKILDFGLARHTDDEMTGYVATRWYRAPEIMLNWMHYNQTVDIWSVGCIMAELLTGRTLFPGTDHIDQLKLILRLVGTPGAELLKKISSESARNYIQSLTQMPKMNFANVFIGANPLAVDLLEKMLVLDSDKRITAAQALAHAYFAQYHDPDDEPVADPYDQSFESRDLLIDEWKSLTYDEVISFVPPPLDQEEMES
row,IC50,Structure (SMILES)
1,65.1 µM,O=C(c1cnn(-c2ccc(F)cc2)c1-c1ccncc1)N1CCNCC1 [Example 17]
2,7.72 µM,"NC(=O)c1cnn(-c2ccc(F)cc2)c1-c1ccncc1 [Example 16, 1-(4-Fluorophenyl)-5-(4-pyridinyl)-1H-pyrazole-4-carboxamide]"
3,< 0.01 µM,"Cc1cccc(-n2nc(C)cc2-c2ccnc(NCCc3ccccc3)c2)c1 [Example 24, 2-(Phenylethylamino)-4-[1-(3-methylphenyl)-3-methyl-1H-pyrazol-5-yl]pyridine]"
4,1.15 µM,"Cc1cccc(-n2nc(C)cc2-c2ccnc(N(C)C)c2)c1 [Example 35, 2-(Dimethylamino)-4-[1-(3-methylphenyl)-3-methyl-1H-pyrazol-5-yl]pyridine]"
5,0.079 µM,"COc1cc(-c2cc(C)nn2-c2cccc(C)c2)ccn1 [Example 22, 2-Methoxy-4-[1-(3-methylphenyl)-3-methyl-1H-pyrazol-5-yl]pyridine]"
6,0.07 µM,Cc1cc(-c2ccnc(NCCO)c2)n(-c2ccc(Cl)cc2)n1 [Example 11]
7,0.29 µM,CNc1cc(-c2cc(C)nn2-c2ccc(C)cc2)ccn1 [Example 9]
8,4.9 µM,Cc1cccc(-n2ncc(C)c2-c2ccncc2)c1 [Example 3]
9,2.68 µM,"COC(=O)c1cnn(-c2ccc(F)cc2)c1-c1ccncc1 [Example 42, Methyl 1-(4-Fluorophenyl)-5-(4-pyridinyl)-1H-pyrazole-4-carboxylate]"
10,67.7 µM,"Cc1cc(-c2ccnc(Cl)c2)n(-c2cccc(F)c2)n1 [Example 46, 2-Chloro-4-[1-(3-fluorophenyl)-3-methyl-1H-pyrazol-5-yl]pyridine]"
11,0.5 µM,"Cc1cccc(-n2nc(C)cc2-c2ccnc(C#N)c2)c1 [Example 31, 2-Cyano-4-[1-(3-methylphenyl)-3 methyl-1H-pyrazol-5-yl]pyridine]"

# System: TNF-a (LPS-stimulated human peripheral blood mononuclear cells)
# Assay: TNF Cell Assay: LPS stimulation of human PBM cells, TNF-a by ELISA
# Type: cell-based
# Settings: PBMC, LPS 20 ng/ml, overnight 37° C., compound 10-0.41 μM
# Protocol: Method of Isolation of Human Peripheral Blood Mononuclear Cells:
# Human whole blood was collected in Vacutainer tubes containing EDTA as an anticoagulant. A blood sample (7 ml) was carefully layered over 5 ml PMN Cell Isolation Medium (Robbins Scientific) in a 15 ml round bottom centrifuge tube. The sample was centrifuged at 450-500×g for 30-35 minutes in a swing out rotor at room temperature. After centrifugation, the top band of cells were removed and washed 3 times with PBS w/o calcium or magnesium. The cells were centrifuged at 400×g for 10 minutes at room temperature. The cells were resuspended in Macrophage Serum Free Medium (Gibco BRL) at a concentration of 2 million cells/ml.
# LPS Stimulation of Human PBMS:
# PBM cells (0.1 ml, 2 million/ml) were co-incubated with 0.1 ml compound (10-0.41 μM, final concentration) for 1 hour in flat bottom 96 well microtiter plates. Compounds were dissolved in DMSO initially and diluted in TCM for a final concentration of 0.1% DMSO. LPS (Calbiochem, 20 ng/ml, final concentration) was then added at a volume of 0.010 ml. Cultures were incubated overnight at 37° C. Supernatants were then removed and tested by ELISA for TNF-a and IL1-b. Viability was analyzed using MTS. After 0.1 ml supernatant was collected, 0.020 ml MTS was added to remaining 0.1 ml cells. The cells were incubated at 37° C. for 2-4 hours, then the O.D. was measured at […].
row,IC50,Structure (SMILES)
1,> 10 µM,O=C(c1cnn(-c2ccc(F)cc2)c1-c1ccncc1)N1CCNCC1 [Example 17]
2,> 10 µM,"NC(=O)c1cnn(-c2ccc(F)cc2)c1-c1ccncc1 [Example 16, 1-(4-Fluorophenyl)-5-(4-pyridinyl)-1H-pyrazole-4-carboxamide]"
3,0.02 µM,"Cc1cccc(-n2nc(C)cc2-c2ccnc(NCCc3ccccc3)c2)c1 [Example 24, 2-(Phenylethylamino)-4-[1-(3-methylphenyl)-3-methyl-1H-pyrazol-5-yl]pyridine]"
4,3.4 µM,"Cc1cccc(-n2nc(C)cc2-c2ccnc(N(C)C)c2)c1 [Example 35, 2-(Dimethylamino)-4-[1-(3-methylphenyl)-3-methyl-1H-pyrazol-5-yl]pyridine]"
5,1.9 µM,"COc1cc(-c2cc(C)nn2-c2cccc(C)c2)ccn1 [Example 22, 2-Methoxy-4-[1-(3-methylphenyl)-3-methyl-1H-pyrazol-5-yl]pyridine]"
6,0.1 µM,Cc1cc(-c2ccnc(NCCO)c2)n(-c2ccc(Cl)cc2)n1 [Example 11]
7,0.1 µM,CNc1cc(-c2cc(C)nn2-c2ccc(C)cc2)ccn1 [Example 9]
8,0.6 µM,Cc1cccc(-n2ncc(C)c2-c2ccncc2)c1 [Example 3]
9,1.7 µM,"Cc1cccc(-n2nc(C)cc2-c2ccnc(C#N)c2)c1 [Example 31, 2-Cyano-4-[1-(3-methylphenyl)-3 methyl-1H-pyrazol-5-yl]pyridine]"

# System: not given
# Assay: not given
# Settings: not given
row,melting point,Structure (SMILES)
1,215 to 216 °C,"NC(=O)c1cnn(-c2ccc(F)cc2)c1-c1ccncc1 [Example 16, 1-(4-Fluorophenyl)-5-(4-pyridinyl)-1H-pyrazole-4-carboxamide]"
2,86 to 87 °C,"Cc1cccc(-n2nc(C)cc2-c2ccnc(NCCc3ccccc3)c2)c1 [Example 24, 2-(Phenylethylamino)-4-[1-(3-methylphenyl)-3-methyl-1H-pyrazol-5-yl]pyridine]"
3,84 to 85 °C,"Cc1cccc(-n2nc(C)cc2-c2ccnc(N(C)C)c2)c1 [Example 35, 2-(Dimethylamino)-4-[1-(3-methylphenyl)-3-methyl-1H-pyrazol-5-yl]pyridine]"
4,137.57 °C,Cc1cc(-c2ccnc(NCCO)c2)n(-c2ccc(Cl)cc2)n1 [Example 11]
5,126.34 °C,CNc1cc(-c2cc(C)nn2-c2ccc(C)cc2)ccn1 [Example 9]
6,141.77 °C,Cc1cccc(-n2ncc(C)c2-c2ccncc2)c1 [Example 3]
7,128 to 130 °C,"Cc1cccc(-n2nc(C)cc2-c2ccnc(C#N)c2)c1 [Example 31, 2-Cyano-4-[1-(3-methylphenyl)-3 methyl-1H-pyrazol-5-yl]pyridine]"
